Results on one compound are retold here after EP0441218A2, “Anthracycline-glycosyl prodrugs, process for their preparation and their use in combination with functionalised tumour-specific enzyme conjugates” (BEHRINGWERKE Aktiengesellschaft, priority 1990, dated 1991).

The nature of series [1]: Stability of the prodrug on incubation in enzyme-free buffer. Format: physicochemical. As to conditions: Phosphat-Puffer pH 5, 37 °C, without enzyme, over the same period (ca. 54 h). On the procedure:
(§1) Spaltung von 14-O-α-D-Galacto-hexo-pyranosyl-doxorubicin (Verbindung 10) durch Human-Plazenta-α-Galactosidase A 0.5 mg der Ausgangsverbindung wurden in 0.5 ml Phosphat-Puffer, pH 5, enthaltend 0.03 U/ml der aus Human-Plazenta isolierten α-Galactosidase A gelöst und bei 37 °C im Dunklen inkubiert. Nach verschiedenen Inkubationszeiten wurden Proben des Inkubationsansatzes entnommen und direkt mittels Hochdruckflüssigkeitschromatographie analysiert (Säule: Nucleosil 100 (RP 18, 5 µm Teilchendurchmesser, 125 x 4.6 mm; Mobile Phase: Gradient aus Lösung A und B: 0 min - 20% A, 10 min - 30% A, 15 min - 30% A, Lösung A = 100% Acetonitril, Lösung B = 0.02 m Phosphat-Puffer pH 3.0; Flußrate: 1 ml/min; Detektion: Fluoreszenz, Ex 495 nm, Em 560 nm). Die Retentionszeit der Ausgangsverbindung betrug unter diesen Chromatographiebedingungen 9.0 min. Die während der Inkubation entstehende Verbindung wies eine mit Adriamycin identische Retentionszeit von 12.6 min auf.
(§2) Die Halbwertszeit der Spaltung betrug unter dem beschriebenen Bedingungen ca. 54 h (extrapolierter Wert). Bei der Inkubation der Ausgangsverbindung in enzymfreier Pufferlösung blieb die Verbindung über diesen Zeitraum stabil.

Series [2] addresses T1, Human-Plazenta-α-Galactosidase A (Homo sapiens, UniProt P06280).
T1 construct: der aus Human-Plazenta isolierten α-Galactosidase A; from tissue; host or cells: human placenta
T1 sequence (P06280 32-429): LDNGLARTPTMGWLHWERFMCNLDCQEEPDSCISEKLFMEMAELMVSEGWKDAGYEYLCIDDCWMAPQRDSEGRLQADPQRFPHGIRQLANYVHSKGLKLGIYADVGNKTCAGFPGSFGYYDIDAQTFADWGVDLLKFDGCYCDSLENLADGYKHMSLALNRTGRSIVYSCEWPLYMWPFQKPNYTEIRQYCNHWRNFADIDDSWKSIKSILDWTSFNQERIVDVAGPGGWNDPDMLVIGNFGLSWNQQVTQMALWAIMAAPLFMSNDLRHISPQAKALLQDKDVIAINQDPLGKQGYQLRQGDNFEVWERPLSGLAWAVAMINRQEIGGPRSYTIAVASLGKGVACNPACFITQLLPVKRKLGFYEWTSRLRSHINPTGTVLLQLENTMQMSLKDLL
Put plainly: Cleavage of the prodrug by human placenta α-galactosidase A (HPLC analysis). Format: biochemical. As to conditions: placenta alpha-galactosidase a, 0.03 U/ml α-Galactosidase A, Phosphat-Puffer pH 5, 37 °C, dark, extrapolated value, read-out: Halbwertszeit der Spaltung (converted). On the procedure: as §1, §2

Series [3] deals with T2, Kaffeebohnen-α-Galactosidase (Coffea arabica, UniProt Q42656).
T2 construct: purchased Sigma
T2 sequence (Q42656 16-378): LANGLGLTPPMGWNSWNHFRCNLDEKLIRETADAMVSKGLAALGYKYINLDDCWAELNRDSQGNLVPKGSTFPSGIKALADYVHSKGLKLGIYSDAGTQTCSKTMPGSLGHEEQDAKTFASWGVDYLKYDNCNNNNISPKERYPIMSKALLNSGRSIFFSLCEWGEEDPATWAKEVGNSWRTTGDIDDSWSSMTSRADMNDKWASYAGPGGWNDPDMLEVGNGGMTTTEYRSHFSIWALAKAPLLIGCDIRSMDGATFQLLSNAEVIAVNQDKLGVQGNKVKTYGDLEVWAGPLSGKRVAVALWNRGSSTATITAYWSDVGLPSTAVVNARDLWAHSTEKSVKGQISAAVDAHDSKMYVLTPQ
The experiment in a line: Cleavage of the prodrug by coffee bean α-galactosidase (HPLC analysis). The settings on record: coffee bean alpha-galactosidase; 0.03 U/ml Kaffeebohnen-α-Galactosidase (Sigma), Phosphat-Puffer pH 5, 37 °C; read-out: Halbwertszeit der Spaltung. Format: biochemical. On the procedure:
as §1
Spaltung von 14-O-α-D-Galacto-hexo-pyranosyl-doxorubicin (Verbindung 10) durch Kaffebohnen-α-Galactosidase Die Ausgangsverbindung wurde unter den gleichen wie in Beispiel 11 beschriebenen Bedingungen in Gegenwart von 0.03 U/ml Kaffeebohnen-α-Galactosidase (Sigma) inkubiert. Die Halbwertszeit der Spaltung betrug in Gegenwart des Enzyms ca. 20 min.

Regarding `COc1cccc2c1C(=O)c1c(O)c3c(c(O)c1C2=O)C[C@@](O)(C(=O)CO[C@H]1O[C@H](CO)[C@H](O)[C@H](O)[C@H]1O)C[C@@H]3O[C@H]1C[C@H](N)[C@H](O)[C@H](C)O1` [Verbindung 10, 14-O-α-D-Galactohexopyranosyl-doxorubicin], in series [1], the “Stability in enzymfreier Pufferlösung” value was “stabil”. Besides, the half-life in series [2] is about 54 h; in series [3], about 0.333 h.
